Test results as given in patent publication US20090075921A1, “Bone/joint disease sensitivity gene and use thereof” (Riken, priority 2004, published 2009).

Assays:
NHAC = assay: Effect of cycloheximide on asporin gene expression induction by TGF-β1 in NHAC; type: cell-based, human
Description: A time course of the expression of the asporin gene by TGF-β1 in NHAC was examined as described below. Cells were inoculated to a 12-well plate at 1×10^5 cells/well, and cultured in a DMEM/F12 containing 10% FBS until they became confluent. The medium was exchanged with a DMEM/F12 containing 0.2% FBS, and the cells were cultured for 24 hours, after which TGF-β1 (10 ng/ml) was added, total RNA was extracted over time, and the expression levels of the asporin and GAPDH genes were examined. As a result, the expression level of the asporin gene maximized when the cells were cultured in the presence of TGF-β1 (10 ng/ml) for 12 hours, and thereafter the expression level decreased over time (FIG. 46).
In the experimental system for asporin gene-expression induction by TGF-β1 used in the method described in Example 54, the effect of CHX (Sigma) (10 μM), a protein synthesis inhibitor, on the induction of the expression of the asporin gene (12 hours), when added 30 minutes before, simultaneously with, or 2 hours or 6 hours after addition of TGF-β1 (10 ng/ml), was examined. As a result, when CHX was added 30 minutes before, and simultaneously with, the addition of TGF-β1, asporin induction by TGF-β1 was inhibited (FIG. 48).

RCJ3.1C5.18 cells = assay: Ionomycin stimulation experiments in chondrocyte precursor cell line RCJ3.1C5.18; type: cell-based, rat; conditions: ionomycin 2 μM, W-7 0 to 10 μM, 24 hours
Description: RCJ3.1C5.18 cells are cells having characters as chondrocyte precursor cells, and showing increased expression of the type II collagen gene and the aggrecan gene in response to stimulation with ionomycin, which is a reagent that raises intracellular calcium concentrations. The present inventors analyzed the involvement of CaM in this reaction using W-7, which is a CaM inhibitor. For ordinary culture, DMEM (Sigma) comprising 10% FBS and antibiotics (100 U/ml penicillin G and 100 μg/ml streptomycin) was used. The stimulation experiments were performed by the procedure shown below. Cells were inoculated to a 12-multiwell plate at 1×10^5 cells/well. […] Quantitative real-time PCR was performed using ABI PRISM 7700 (Applied Biosystems). PCR reactions were performed using a system of a final volume of 20 μl [reverse transcription reaction mixture 1 μl, QuantiTect SYBR Green PCR (QIAGEN) 10 μl, 10 μM forward primer 0.6 μl, 10 μM reverse primer 0.6 μl, […]]. […] The copy number of the target gene in each sample was calculated from a calibration curve prepared using serial dilutions of target gene DNA of a known copy number. The expression level of each gene was corrected by total RNA content calculated with the expression level of GADPH as the index.

ATDC5 = assay: Chondrocyte differentiation experiments in ATDC5 with CaM inhibitor; type: cell-based, mouse; conditions: W-7 20 μM in insulin-containing differentiation medium
Source text: The embryonic tumor-derived cloned cell line ATDC5 is an in vitro chondrocyte differentiation model that enables the reproduction of all differentiation stages of chondrocytes, from initial differentiation to terminal differentiation, in the presence of insulin. To analyze the role of calmodulin (CaM) in chondrocyte differentiation, the present inventors cultured ATDC5 in the presence of W-7, which is a CaM inhibitor, and quantified the expression levels of chondrocyte differentiation markers, i.e., the type II collagen gene (Col2a1), the aggrecan gene (Agc1), and the type X collagen gene (Col10a1). […] Medium exchange was performed every two days; cultivation was continued for up to 22 days, counted from the day of exchange to the differentiation medium. […] Quantitative real-time PCR was performed using ABI PRISM 7700 (Applied Biosystems). PCR reactions were performed using a system of a final volume of 20 μl [reverse transcription reaction mixture 1 μl, QuantiTect SYBR Green PCR (QIAGEN) 10 μl, 10 μM forward primer 0.6 μl, 10 μM reverse primer 0.6 μl, […]]. […] The copy number of the target gene in each sample was calculated from a calibration curve prepared using serial dilutions of target gene DNA of a known copy number. The expression level of each gene was corrected by total RNA content calculated with the expression level of Gapdh as the index.

TGF-β1 = TGF-β1 (Homo sapiens, UniProt P01137); assay: Microplate binding assay, inhibition of biotinylated decholine binding to TGF-β1 solid phase; conditions: TGF-β1-coated microplate
Description: A binding assay of mouse asporin and TGF-β using the microplate assay method was performed with the degree of inhibition of binding of biotinylated decholine and TGF-β as the index, as described below. To a Maxisorp 96-well microplate of Nunc, a 1 μg/ml TGF-β1 solution prepared with 0.05 M sodium carbonate buffer (pH 9.6) was dispensed at 100 μl/well, and the microplate was coated with the solution at 4° C. overnight. The TGF-β-coated wells were blocked in a 200 μl/well of binding buffer (50 mM Tris (pH 7.4), 150 mM NaCl, 2% BSA, 0.05% Tween 20) at 37° C. for 3 hours. The wells were once washed with a 400 μl/well of binding buffer, after which biotinylated decholine and non-labeled protein, prepared with the binding buffer, were added to obtain a total quantity of 100 μl per well, and the microplate was incubated at 37° C. for 6 hours. The wells were washed with a 400 μl/well of binding buffer 3 times, after which streptavidin-HRP (R&D System), diluted 200 fold with the binding buffer, was added at 100 μl/well, and the microplate was incubated at room temperature for 20 minutes. […] The reaction was stopped by the direct addition of 1 M phosphoric acid at 100 μl/well, and absorbance at 415 nm (control: 750 nm) was measured using Ultramark Microplate Imaging System (BIO-RAD). […]

Sequence of TGF-β1 (P01137 279-390 limits assumed, species assumed): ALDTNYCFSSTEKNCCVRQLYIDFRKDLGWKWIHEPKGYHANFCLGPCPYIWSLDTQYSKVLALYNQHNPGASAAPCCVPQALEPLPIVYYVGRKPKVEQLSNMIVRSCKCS

C[C@@H]1C[C@@H]([C@H](O)CC2CC(=O)NC(=O)C2)C(=O)[C@@H](C)C1 [CHX, cycloheximide]
asporin induction by TGF-β1 (NHAC; CHX 10 μM added 30 minutes before or simultaneously with TGF-β1 10 ng/ml): inhibited
asporin induction by TGF-β1 (NHAC; CHX 10 μM added at 2 hours or thereafter following TGF-β1): induction of asporin gene expression by TGF-β1 was observed

NCCCCCCNS(=O)(=O)c1cccc2c(Cl)cccc12 [W-7]
ionomycin-induced expression of the type II collagen gene and the aggrecan gene (RCJ3.1C5.18 cells): suppressed dose-dependently
increases in the expression levels of Col2a1 and Agc1 (ATDC5; real-time PCR): suppressed to about half
expression level of Col10a1 (ATDC5; up to Day 22): further rose

B1: Fr.18-21: partially purified product of Escherichia coli recombinant S-tagged mouse asporin (protein, UniProt Q99MQ4 33-373, looked up)
Asporin: DMEDTDDDDNDDDDNSLFPTKEPVNPFFPFDLFPTCPFGCQCYSRVVHCSDLGLTSVPNNIPFDTRMVDLQNNKIKEIKENDFKGLTSLYALILNNNKLTKIHPKTFLTTKKLRRLYLSHNQLSEIPLNLPKSLAELRIHDNKVKKIQKDTFKGMNALHVLEMSANPLENNGIEPGAFEGVTVFHIRIAEAKLTSIPKGLPPTLLELHLDFNKISTVELEDLKRYRELQRLGLGNNRITDIENGTFANIPRVREIHLEHNKLKKIPSGLQELKYLQIIFLHYNSIAKVGVNDFCPTVPKMKKSLYSAISLFNNPMKYWEIQPATFRCVLGRMSVQLGNVGK
modifications: S-tag; partially purified fraction
notes: partially purified product of Escherichia coli recombinant S-tagged mouse asporin
inhibition of binding of biotinylated decholine to TGF-β1 (TGF-β1): observed with dependence on protein content

B2: S-tagged mouse asporin: S-tagged mature mouse asporin expressed in E. coli from pET29b-MASP, contained in Fr.18-21 (protein)
chain: DMEDTDDDDNDDDDNSLFPTKEPVNPFFPFDLFPTCPFGCQCYSRVVHCSDLGLTSVPNNIPFDTRMVDLQNNKIKEIKENDFKGLTSLYALILNNNKLTKIHPKTFLTTKKLRRLYLSHNQLSEIPLNLPKSLAELRIHDNKVKKIQKDTFKGMNALHVLEMSANPLENNGIEPGAFEGVTVFHIRIAEAKLTSIPKGLPPTLLELHLDFNKISTVELEDLKRYRELQRLGLGNNRITDIENGTFANIPRVREIHLEHNKLKKIPSGLQELKYLQIIFLHYNSIAKVGVNDFCPTVPKMKKSLYSAISLFNNPMKYWEIQPATFRCVLGRMSVQLGNVGK
modifications: left off: small tags and cut ends
binding of S-tagged mouse asporin to the TGF-β1 solid phase (TGF-β1): binding of S-tagged mouse asporin was observed
